Assay [1] deals with MMP1. The assay is described as follows: Western blotting, kinase inhibitors on MMP1 protein expression induced by PMA in SW1353 cells. In kind it is cell-based, human. The note with it: UO126 10 μM, SP600125 25 μM, 24 h, then PMA 100 ng/mL 24 h. The method, then:
Western blotting analysis was carried out based on the following procedure. Cells were washed and lysed in 0.2 mL of lysis buffer (1% NP-40, 50 mM Tris-HCl, pH 7.4, 180 mM NaCl, 1 mM EDTA, 1 mM PMSF, 1 mM NaF, 10 mM Na3VO4) for 30 min at 4° C. After centrifugation at 17500 g for 15 min, the supernatants of cell lysate were collected. Protein concentrations of the samples were measured using the bicinchoninic acid (BCA) protein assay kit according to the manufacturer's protocol (Pierce, Rockford, Ill., USA). Equal amounts of protein samples of concentrated conditioned medium (100 μg) or cell lysate supernatants (50 μg) were mixed with an appropriate volume of 4×SDS sampling buffer and separated on a 8% SDS-PAGE gel. The protein bands separated on the SDS-PAGE gel were blotted onto a polyvinylidene fluoride (PVDF) membrane. The blotted PVDF membrane was washed twice and blocked in freshly prepared Tris-buffered saline (TBS) containing 0.1% Tween-20 and 7% skim milk (TBST) for 2 hours at room temperature. The PVDF membrane was then incubated with a primary antibody against MMP1 protein (Santa Cruz Biotechnology, Santa Cruz, Calif.) for 18 hours at 4° C. Horseradish peroxidase-conjugated anti-goat antibody was used as the secondary antibody. Signals were visualized by an enhanced chemiluminescence kit (Clonetech, Palo Alto, Calif., USA) followed by exposure to X-ray films. […]
(A western blot detects proteins with antibodies after separation by electrophoresis.)

For assay [2], the system named is MMP1. To be noted: UO126 10 μM, SP600125 25 μM, SB203580 5 μM, 24 h, then PMA 100 ng/mL 24 h.
Method: The SW1353 cells were grown at 37° C. in a humidified incubator under 5% CO2 and 95% air in the culture medium as described above. The SW1353 cells were then sub-cultured into 6-well culture plates with serum free medium at an average amount of 2×10^5 cells per well and incubated for 24 hours. Then, the SW1353 cells were treated with 10 μM UO126 (MEK1-specific inhibitor), 25 μM, SP600125 (JNK-specific inhibitor), 5 μM SB203580 (p38-specific inhibitor), or 20 μM LY294002 (PI3K kinase inhibitor), and incubated for another 24 hours. Later, the SW1353 cells were treated with 100 ng/mL PMA and again incubated for 24 hours. Finally, the SW1353 cells were under cell extraction and the cell lysate was used for further luciferase analysis and western blotting analysis.
The SW1353 cells were grown at 37° C. in a humidified incubator under 5% CO2 and 95% air in the culture medium as described above. The SW1353 cells were then sub-cultured into 24-well culture plates and cultured for 24 hours. […] Following cell extraction, the cell lysate was centrifuged at 4° C., 20000 g for 30 minutes and then transferred to a 1.5 ml-microcentrifuge tube. Then, 100 μl buffer A (0.1 mM luciferin) and 350 μl buffer B (1 M MgSO4, 1 M Hepes (pH 7.8), 0.1 M ATP) were added into the microcentrifuge tube. The luciferase activity of final mixture was measured by a luminometer for 30 seconds.

As to `N#CC(=C(/N)Sc1ccccc1N)/C(C#N)=C(/N)Sc1ccccc1N` [UO126], in the assay on MMP1 [1], the “protein expression by western blotting (effect of kinase inhibitors on MMP1 protein expression induced by PMA)” value is “significantly reduced”. For the same compound, the “luciferase activity (control group 1 fold, PMA-only group 8 fold)” value in the assay with MMP1 [2] was determined as 2.6 fold.

Values taken from patent publication US8168596B2, “Use of cycloartane compounds for treating arthritis” (NuLiv Holding Inc., priority 2008, dated 2012).
